# In patent US20110300199A1, “PEPTIDES USED IN THE TREATMENT AND/OR CARE OF THE SKIN, MUCOUS MEMBRANES AND/OR SCALP AND THEIR USE IN COSMETIC OR PHARMACEUTICAL COMPOSITIONS” (LIPOTEC, S.A., priority 2009, published 2011):
# pIC50: −log10 of the molar value. Non-standard residues stand in square brackets, D forms with d. Phg = N[C@H](C(=O)O)c1ccccc1
# Biological target: T1, Human neutrophil elastase (Homo sapiens, UniProt P08246)
# T1 sequence (P08246 30-267): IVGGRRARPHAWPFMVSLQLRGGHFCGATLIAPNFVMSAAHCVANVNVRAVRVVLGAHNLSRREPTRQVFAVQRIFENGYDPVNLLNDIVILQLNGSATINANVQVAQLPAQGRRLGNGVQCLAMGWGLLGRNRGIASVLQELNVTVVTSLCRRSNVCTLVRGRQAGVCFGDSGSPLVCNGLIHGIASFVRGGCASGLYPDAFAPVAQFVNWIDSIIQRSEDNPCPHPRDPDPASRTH
# Test: Human elastase inhibition assay (fluorogenic substrate MeOSuc-Ala-Ala-Pro-Val aminomethyl coumarin)
# Format: biochemical
# Conditions: 0.2 μg/ml protease, peptides 0.05-2 mM, 1 hour preincubation, substrate 25 μg/mL, 2 h; read-out: IC50 (minimum inhibitory concentration of peptides against human elastase)
# Procedure: Human neutrophil elastase was reconstituted at 5 μg/mL in 50 mM sodium acetate, 200 mm NaCl, pH 5.5 buffer. 0.2 μg/ml of protease were preincubated with the peptides at a final concentration of 0.05-2 mM in a black microplate with 96 wells for 1 hour at room temperature. After preincubation, 25 μg/mL of substrate (MeOSuc-Ala-Ala-Pro-Val aminomethyl coumarin) were added to the wells and the samples were incubated for 2 h at room temperature and protected from light. The fluorescence released by digestion of the substrate was measured with an automated multiplate fluorescence reader, exciting at 370 nm and reading at 460 nm.
# The results were corrected from the baseline fluorescence value in the absence of elastase and product, and were normalized with respect to the fluorescence of the control, and the minimum inhibitory concentration for each of the peptides was determined.
row,Substance,pIC50
1,H-L-Arg-Phg-L-Trp-Phg-OH,3.99
2,H-L-Arg-Phg-L-Val-Gly-OH,3.39
3,H-L-Arg-Phg-L-Val-Phg-OH,4.03

# System: Human dermal fibroblasts
# Test: Collagen synthesis stimulation assay (secreted Collagen Type I by ELISA)
# Format: cell-based
# Conditions: peptides at 15 μg/ml, 48 h, medium analysed by ELISA; normalized to vehicle negative control
# Procedure: Human dermal fibroblasts were grown until confluence in MI06 medium supplemented with specific growth factors for fibroblasts. Then, they were strypsinized and seeded at 5×10^4 cells/well in 24-well plates. After 24 h of incubation at 37° C. in 5% CO2 atmosphere, fresh medium was added with scalar dilutions of the peptides at 15 μg/ml or with vehicle as negative control. Cells were incubated for 48 additional hours, after which medium was collected.
# The analysis of the amount of secreted Collagen Type I was performed by means of an ELISA assay. Briefly, 96-well plated were coated with 50 μL per well of the previously collected medium and allowed to adsorb overnight at 4° C. in a humidified atmosphere. Then the plates were washed 3 times with PBS (+0.05% Tween-20) and blocked for 1 h with 3% BSA. After blocking, the plates were treated with an anti-Collagen Type I antibody (1:1000 in PBS, 0.05% Tween-20, 1% BSA) for 2 h. After this incubation, the secondary antibody (goat anti-mouse IgG-HRP antibody, Molecular Probes, 1:1000 in PBS, 0.05% Tween-20, 1% BSA) was added. Plates were incubated with […] substrate for 30 min and the reaction was stopped by adding 3 M H2SO4. Absorbance at 490 nm was read using a microplate reader and collagen concentration determined using a linear regression standard curve for Collagen Type I. Values were normalized in respect to the collagen values for the negative control experiment and the increase in the Collagen Type I was calculated for all the treatments.
row,Substance,Increase of Collagen Type I by treatment with the peptides [%]
1,H-L-Arg-Phg-L-Trp-Phg-OH,99
2,H-L-Arg-Phg-L-Val-Gly-OH,16
3,H-L-Arg-Phg-L-Val-Phg-OH,18

# Biological target: T2, elastase (Sus scrofa, UniProt P00772)
# T2 construct: purchased Molecular Probes
# T2 sequence (P00772 27-266): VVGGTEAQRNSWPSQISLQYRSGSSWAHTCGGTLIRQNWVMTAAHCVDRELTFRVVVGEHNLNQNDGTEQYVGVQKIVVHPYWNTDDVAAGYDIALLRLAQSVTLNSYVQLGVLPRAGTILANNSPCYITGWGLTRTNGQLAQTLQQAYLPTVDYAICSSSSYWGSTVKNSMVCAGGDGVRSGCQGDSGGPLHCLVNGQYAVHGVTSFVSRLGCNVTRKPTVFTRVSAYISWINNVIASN
# Test: Elastase inhibition assay (EnzChek Elastase Assay Kit, DQ Elastin substrate)
# Format: biochemical
# Conditions: peptides at 0.1 mM, pre-incubated 1 hour with 0.4 unit/mL elastase; DQ Elastin 25 μg/mL, 2 h; normalized to baseline
# Procedure: The peptides were resuspended in water in the presence of 0.5% DMSO. The assay was conducted on black microplates with 96 wells using the EnzChek® Elastase Assay Kit (Molecular Probes). For this purpose, the peptides were pre-incubated at 0.1 mM for 1 hour with 0.4 unit/mL of elastase at room temperature with moderate stirring, after which the conjugated substrate was added to fluorescein (DQ™ Elastin) at a final concentration of 25 μg/mL and reactions were incubated for 2 h at room temperature with stirring and protected from light. The substrate, whose fluorescence is inhibited, is digested by elastase to release fluorescent fragments which are monitored by fluorescence with a FLUOstar galaxy reader (BMG LabTechnologies) using 485 nm filters for excitation and 530 nm filters for emission.
# Inhibition values were normalized with respect to baseline values of average inhibition.
row,Substance,Elastase inhibition percentage (% inhibition) [%]
1,Ac-L-Arg-Phg-L-Trp-Phg-NH—(CH2)15—CH3,53.7
2,Ac-L-Arg-Phg-L-Trp-Phg-OH,90.3
3,Ac-L-Arg-Phg-L-Val-Phg-OH,82.3
4,Ac-L-Nle-Phg-L-Trp-Gly-OH,69.6
5,Ac-L-Nle-Phg-L-Trp-Phg-OH,90.0
6,Ac-L-Nle-Phg-L-Val-Gly-OH,62.7
7,Ac-L-Nle-Phg-L-Val-Phg-OH,73.8
8,Ac-Phg-L-Trp-Phg-OH,45.1
9,Ac-Phg-Phg-L-Trp-Gly-OH,65.0
10,Ac-Phg-Phg-L-Trp-Phg-OH,84.2
11,Ac-Phg-Phg-L-Val-Phg-OH,76.1
12,Ac-R[Phg]VG-OH,81.4
13,Ac-R[Phg]WG-OH,66.9
14,Ac-[Phg][Phg]VG-OH,64.2
15,Palm-L-Arg-Phg-L-Trp-Phg-NH2,57.1
